Laboratory results reported in ChEMBL document CHEMBL1201862, “PubChem BioAssay data set” (2004).
Active and inactive are the calls of the source.

Columns and labels:
[1] = biological target: Adenosylmethionine-8-amino-7-oxononanoate aminotransferase (Mycobacterium tuberculosis, UniProt P9WQ81); assay: Mycobacterium tuberculosis BioA enzyme inhibitor Measured in Biochemical System Using Plate Reader - 2163-02_Inhibitor_Dose_CherryPick_Activity.; format: functional, Mycobacterium tuberculosis UT205
Sequence of Adenosylmethionine-8-amino-7-oxononanoate aminotransferase (P9WQ81 whole entry): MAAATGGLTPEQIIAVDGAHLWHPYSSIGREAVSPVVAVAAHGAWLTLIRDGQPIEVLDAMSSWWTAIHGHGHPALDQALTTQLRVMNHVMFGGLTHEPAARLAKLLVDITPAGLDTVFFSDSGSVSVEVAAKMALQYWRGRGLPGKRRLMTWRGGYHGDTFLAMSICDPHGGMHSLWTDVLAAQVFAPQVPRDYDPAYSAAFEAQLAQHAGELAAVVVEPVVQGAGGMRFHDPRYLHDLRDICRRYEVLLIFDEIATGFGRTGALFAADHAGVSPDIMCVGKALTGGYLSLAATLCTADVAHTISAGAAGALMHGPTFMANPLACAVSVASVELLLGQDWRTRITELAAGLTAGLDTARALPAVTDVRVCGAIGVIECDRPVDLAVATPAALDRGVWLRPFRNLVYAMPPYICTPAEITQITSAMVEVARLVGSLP

[2] = biological target: Peroxisome proliferator-activated receptor gamma/Nuclear receptor coactivator 3 (Homo sapiens, UniProt P37231); format: functional;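 further: agonist potency for raising coactivator recruitment to the receptor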
[3] = biological target: Peroxisome proliferator-activated receptor gamma/Nuclear receptor coactivator 1 (Homo sapiens, UniProt P37231); format: functional;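 further: agonist potency as compounds enhance coactivator SRC-1 recruitment to PPARgamma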
Sequence of Peroxisome proliferator-activated receptor gamma/Nuclear receptor coactivator 1 (P37231 whole entry): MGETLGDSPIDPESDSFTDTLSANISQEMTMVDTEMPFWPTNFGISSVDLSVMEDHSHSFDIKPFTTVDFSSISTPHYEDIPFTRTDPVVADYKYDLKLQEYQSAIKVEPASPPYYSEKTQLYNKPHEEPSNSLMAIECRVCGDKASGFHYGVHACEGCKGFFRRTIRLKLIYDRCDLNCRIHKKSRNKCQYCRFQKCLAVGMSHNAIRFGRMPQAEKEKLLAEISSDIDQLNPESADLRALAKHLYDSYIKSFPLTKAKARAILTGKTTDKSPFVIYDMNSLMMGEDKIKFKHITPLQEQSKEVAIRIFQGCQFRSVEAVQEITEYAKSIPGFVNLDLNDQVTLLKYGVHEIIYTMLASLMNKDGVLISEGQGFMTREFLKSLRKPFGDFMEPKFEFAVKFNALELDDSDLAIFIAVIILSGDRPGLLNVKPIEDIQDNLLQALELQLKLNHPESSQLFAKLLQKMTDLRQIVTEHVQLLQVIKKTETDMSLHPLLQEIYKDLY
Sequence of Peroxisome proliferator-activated receptor gamma/Nuclear receptor coactivator 1 (Q15788 whole entry, further chain): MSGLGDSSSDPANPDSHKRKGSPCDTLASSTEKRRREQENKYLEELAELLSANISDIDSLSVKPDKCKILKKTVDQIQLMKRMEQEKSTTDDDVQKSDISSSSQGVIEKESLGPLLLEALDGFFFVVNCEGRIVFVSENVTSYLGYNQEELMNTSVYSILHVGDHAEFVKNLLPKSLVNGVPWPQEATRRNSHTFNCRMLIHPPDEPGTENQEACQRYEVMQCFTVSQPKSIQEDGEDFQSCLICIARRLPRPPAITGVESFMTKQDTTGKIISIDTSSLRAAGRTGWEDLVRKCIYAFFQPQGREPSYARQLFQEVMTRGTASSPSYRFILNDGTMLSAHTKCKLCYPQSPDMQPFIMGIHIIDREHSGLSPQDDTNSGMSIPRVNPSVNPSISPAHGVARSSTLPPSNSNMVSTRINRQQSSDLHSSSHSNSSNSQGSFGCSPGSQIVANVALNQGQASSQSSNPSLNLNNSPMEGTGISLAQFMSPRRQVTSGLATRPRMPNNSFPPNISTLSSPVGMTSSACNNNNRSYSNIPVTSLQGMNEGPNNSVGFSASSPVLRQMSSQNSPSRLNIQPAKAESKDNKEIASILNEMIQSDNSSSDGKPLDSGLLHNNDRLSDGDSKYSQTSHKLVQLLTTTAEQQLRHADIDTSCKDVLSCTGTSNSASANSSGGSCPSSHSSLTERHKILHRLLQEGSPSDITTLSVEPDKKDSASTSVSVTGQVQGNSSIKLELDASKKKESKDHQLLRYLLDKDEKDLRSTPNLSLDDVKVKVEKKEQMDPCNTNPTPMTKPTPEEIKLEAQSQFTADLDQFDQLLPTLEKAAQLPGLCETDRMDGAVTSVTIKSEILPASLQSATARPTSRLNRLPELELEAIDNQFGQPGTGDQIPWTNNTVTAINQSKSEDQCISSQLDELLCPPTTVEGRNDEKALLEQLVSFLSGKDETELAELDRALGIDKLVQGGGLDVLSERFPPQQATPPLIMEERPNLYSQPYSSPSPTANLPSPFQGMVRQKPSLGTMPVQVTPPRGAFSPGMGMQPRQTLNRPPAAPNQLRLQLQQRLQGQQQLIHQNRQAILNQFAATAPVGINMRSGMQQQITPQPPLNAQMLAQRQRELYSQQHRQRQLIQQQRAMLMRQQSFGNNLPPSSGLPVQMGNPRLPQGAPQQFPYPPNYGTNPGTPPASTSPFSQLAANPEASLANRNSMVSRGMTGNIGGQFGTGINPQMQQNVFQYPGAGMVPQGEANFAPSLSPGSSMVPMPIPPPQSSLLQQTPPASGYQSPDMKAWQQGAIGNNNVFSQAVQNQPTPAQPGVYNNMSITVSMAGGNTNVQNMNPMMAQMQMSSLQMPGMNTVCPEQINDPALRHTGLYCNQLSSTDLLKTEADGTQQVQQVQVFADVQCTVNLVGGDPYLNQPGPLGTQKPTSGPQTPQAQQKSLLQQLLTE

Insulin-degrading enzyme [4] = biological target: T1, Insulin-degrading enzyme (Homo sapiens, UniProt P14735); assay: activators of recombinant IDE enzyme, dose response, counter-screen for IDE activator project, biochemical, fluorescence polarization (AID 588681)
T1 sequence (P14735 whole entry): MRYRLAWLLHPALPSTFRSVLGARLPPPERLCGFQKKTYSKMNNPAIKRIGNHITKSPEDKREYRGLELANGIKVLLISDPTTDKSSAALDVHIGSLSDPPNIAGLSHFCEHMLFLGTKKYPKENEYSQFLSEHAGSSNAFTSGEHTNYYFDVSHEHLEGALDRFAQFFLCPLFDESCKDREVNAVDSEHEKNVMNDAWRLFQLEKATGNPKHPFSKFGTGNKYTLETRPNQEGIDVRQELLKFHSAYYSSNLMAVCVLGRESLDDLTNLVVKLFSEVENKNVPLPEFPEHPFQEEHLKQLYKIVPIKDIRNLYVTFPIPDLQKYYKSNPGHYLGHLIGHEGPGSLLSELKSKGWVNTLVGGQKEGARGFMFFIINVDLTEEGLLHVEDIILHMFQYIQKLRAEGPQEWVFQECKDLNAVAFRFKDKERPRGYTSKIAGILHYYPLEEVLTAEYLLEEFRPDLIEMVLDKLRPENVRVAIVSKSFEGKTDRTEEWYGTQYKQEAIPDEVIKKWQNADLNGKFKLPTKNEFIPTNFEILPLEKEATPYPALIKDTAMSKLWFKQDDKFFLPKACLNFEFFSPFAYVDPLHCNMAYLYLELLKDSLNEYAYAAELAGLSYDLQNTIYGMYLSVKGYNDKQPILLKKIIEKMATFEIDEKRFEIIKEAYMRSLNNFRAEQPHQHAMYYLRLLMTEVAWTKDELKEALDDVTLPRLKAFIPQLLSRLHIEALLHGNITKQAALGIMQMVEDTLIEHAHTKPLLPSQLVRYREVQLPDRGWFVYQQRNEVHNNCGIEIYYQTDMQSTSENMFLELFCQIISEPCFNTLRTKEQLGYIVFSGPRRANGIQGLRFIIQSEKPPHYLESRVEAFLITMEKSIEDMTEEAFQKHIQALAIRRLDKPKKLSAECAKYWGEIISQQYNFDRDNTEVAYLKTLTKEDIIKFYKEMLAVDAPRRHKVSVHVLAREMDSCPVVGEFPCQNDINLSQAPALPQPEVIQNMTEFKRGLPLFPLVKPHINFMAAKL

HEK293 [5] = assay: HEK cell cytotoxicity by LDH release, dose response, cytotoxicity control for IDE activator project, fluorescence, HEK cells (AID 588440); format: functional, cell-based; conditions: Homo sapiens;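 further: cytotoxicity by LDH release measuring loss of membrane integrity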
Insulin-degrading enzyme [6] = biological target: T1, Insulin-degrading enzyme; assay: activators of endogenous IDE in HEK cells, dose response, cell-based, fluorescence polarization (AID 588439); format: functional
[7] = biological target: Peroxisome proliferator-activated receptor gamma/Nuclear receptor coactivator 2 (Homo sapiens, UniProt P37231); format: functional;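 further: agonist potency for raising coactivator recruitment to the receptor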
HEK293 [8] = assay: optical interference in Abeta FP readout, dose response, artefact control for IDE activator project, biochemical, fluorescence polarization (AID 588442); format: functional, cell-based; conditions: Homo sapiens
[9] = biological target: T2, Mitochondrial peptide methionine sulfoxide reductase (Bos taurus, UniProt P54149); assay: Absorbance-based biochemical high throughput dose response assay for activators of Methionine sulfoxide reductase A (MsrA).; format: functional
T2 sequence (P54149 whole entry): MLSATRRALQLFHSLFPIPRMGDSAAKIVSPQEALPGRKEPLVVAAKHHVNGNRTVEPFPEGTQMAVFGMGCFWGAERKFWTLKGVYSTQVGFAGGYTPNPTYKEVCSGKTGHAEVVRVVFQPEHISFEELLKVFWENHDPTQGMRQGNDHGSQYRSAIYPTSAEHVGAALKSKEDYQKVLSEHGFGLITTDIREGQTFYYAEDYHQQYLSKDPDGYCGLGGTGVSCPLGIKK

ORF 73 = biological target: T3, ORF 73 (Human herpesvirus 8, UniProt O40947); assay: inhibitors of C-LANA binding to LBS DNA, dose response, biochemical, fluorescence polarization, cherry-picked samples (AID 504725); parameters: species or system Human gammaherpesvirus 8;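 further: fluorescence polarization of a labeled DNA duplex reporting LANA DNA binding; potency is for inhibitors that block LANA binding to the DNA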
T3 sequence (O40947 whole entry): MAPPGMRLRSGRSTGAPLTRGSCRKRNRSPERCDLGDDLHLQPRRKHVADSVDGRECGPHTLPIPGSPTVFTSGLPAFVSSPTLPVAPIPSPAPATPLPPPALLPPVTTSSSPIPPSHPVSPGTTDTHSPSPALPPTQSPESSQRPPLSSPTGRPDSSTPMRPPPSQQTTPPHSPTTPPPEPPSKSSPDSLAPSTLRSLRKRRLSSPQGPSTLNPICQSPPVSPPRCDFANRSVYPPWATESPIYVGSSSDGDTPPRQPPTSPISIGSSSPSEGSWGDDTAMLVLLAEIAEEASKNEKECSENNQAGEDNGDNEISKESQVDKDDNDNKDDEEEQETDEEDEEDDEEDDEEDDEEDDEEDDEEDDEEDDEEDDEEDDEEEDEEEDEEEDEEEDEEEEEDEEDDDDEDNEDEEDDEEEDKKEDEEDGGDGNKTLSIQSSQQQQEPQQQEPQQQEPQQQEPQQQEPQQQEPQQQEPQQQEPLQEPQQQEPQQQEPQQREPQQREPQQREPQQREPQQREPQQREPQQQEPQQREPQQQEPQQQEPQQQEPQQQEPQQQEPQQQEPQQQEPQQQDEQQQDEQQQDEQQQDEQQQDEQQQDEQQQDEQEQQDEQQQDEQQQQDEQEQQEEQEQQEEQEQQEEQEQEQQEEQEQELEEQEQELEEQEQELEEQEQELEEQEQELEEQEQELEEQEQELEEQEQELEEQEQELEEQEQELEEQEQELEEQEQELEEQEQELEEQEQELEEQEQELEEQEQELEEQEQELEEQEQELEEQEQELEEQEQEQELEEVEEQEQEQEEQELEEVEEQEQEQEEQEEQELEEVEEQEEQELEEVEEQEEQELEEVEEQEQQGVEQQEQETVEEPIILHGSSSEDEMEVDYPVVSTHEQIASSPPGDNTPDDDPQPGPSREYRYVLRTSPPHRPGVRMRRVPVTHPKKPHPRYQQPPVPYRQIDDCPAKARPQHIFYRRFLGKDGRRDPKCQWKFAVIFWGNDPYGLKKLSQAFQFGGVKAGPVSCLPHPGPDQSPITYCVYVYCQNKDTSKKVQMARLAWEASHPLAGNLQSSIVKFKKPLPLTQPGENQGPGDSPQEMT

[10] = biological target: T2, Mitochondrial peptide methionine sulfoxide reductase; format: functional
[11] = LGR2 antagonists, dose response, cell-based, HEK293, CRE-luciferase reporter, cherry pick, set 2 (AID 743343); format: functional;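 further: transfected cells were stimulated with diluted bursicon conditioned medium after compound addition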
Interleukin-8 [12] = biological target: T4, Interleukin-8 (Homo sapiens, UniProt P10145); assay: Dose Response confirmation of uHTS small molecule hits for cystic fibrosis induced NFkb Inhibitors in a PAF-induced IL8 counterscreen.; format: functional; conditions: read-out: IC50_Mean
T4 sequence (P10145 whole entry): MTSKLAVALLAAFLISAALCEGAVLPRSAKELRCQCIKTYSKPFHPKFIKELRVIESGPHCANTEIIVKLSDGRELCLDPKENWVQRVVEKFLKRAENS

[13] = HepG2 cell cytotoxicity, dose response, cytotoxicity control, plate reader, cherry-pick, antagonist series (AID 743416); format: functional, cell-based
Interleukin-8 [14] = biological target: T4, Interleukin-8; assay: Dose Response confirmation of uHTS small molecule hits for cystic fibrosis induced NFkb Inhibitors in a TNFa-induced IL8 counterscreen.; format: functional; conditions: read-out: IC50_Mean
[15] = MC4R antagonists, dose response, counter-screen for LGR2 antagonist project, cell-based, plate reader, cherry pick (AID 743444); format: functional;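 further: transfected HEK 293 cells stimulated with alpha-MSH peptide; potency of inhibitors of the alpha-MSH evoked signal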
Protein skinhead-1 = biological target: T5, Protein skinhead-1 (Caenorhabditis elegans, UniProt P34707); format: functional
T5 sequence (P34707 whole entry): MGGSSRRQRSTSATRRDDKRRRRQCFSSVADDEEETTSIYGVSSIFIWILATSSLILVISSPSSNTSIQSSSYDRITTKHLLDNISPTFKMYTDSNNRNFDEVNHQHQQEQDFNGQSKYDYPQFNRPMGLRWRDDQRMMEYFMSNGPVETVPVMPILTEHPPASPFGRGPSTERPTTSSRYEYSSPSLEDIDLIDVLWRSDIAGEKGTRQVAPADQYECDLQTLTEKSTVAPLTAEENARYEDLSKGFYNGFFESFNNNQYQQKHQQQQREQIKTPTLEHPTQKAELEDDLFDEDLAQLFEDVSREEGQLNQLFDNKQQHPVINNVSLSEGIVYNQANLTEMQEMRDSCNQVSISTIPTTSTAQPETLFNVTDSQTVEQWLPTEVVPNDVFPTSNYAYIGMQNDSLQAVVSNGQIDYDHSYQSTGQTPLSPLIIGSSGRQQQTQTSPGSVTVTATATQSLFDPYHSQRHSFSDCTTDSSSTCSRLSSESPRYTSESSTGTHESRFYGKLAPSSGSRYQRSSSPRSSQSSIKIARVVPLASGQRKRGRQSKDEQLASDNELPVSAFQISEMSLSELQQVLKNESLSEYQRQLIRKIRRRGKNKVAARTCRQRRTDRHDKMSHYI

[16] = biological target: T6, Low molecular weight phosphotyrosine protein phosphatase (Homo sapiens, UniProt P24666); format: functional; conditions: read-out: IC50_Mean;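 further: Dose-response confirmation assay measuring inhibition of LMPTP enzyme activity by fluorescence intensity read-out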
T6 sequence (P24666 whole entry): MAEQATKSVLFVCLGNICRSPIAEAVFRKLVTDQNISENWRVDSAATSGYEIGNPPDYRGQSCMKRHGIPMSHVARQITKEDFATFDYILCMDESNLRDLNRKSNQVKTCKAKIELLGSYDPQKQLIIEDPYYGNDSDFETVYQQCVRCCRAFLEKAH

[17] = biological target: DNA (cytosine-5)-methyltransferase 1 (Homo sapiens, UniProt P26358); assay: DNMT1 methyltransferase inhibitors, confirmation, biochemical, fluorescent molecular beacon (AID 602386); format: functional
Sequence of DNA (cytosine-5)-methyltransferase 1 (P26358 whole entry): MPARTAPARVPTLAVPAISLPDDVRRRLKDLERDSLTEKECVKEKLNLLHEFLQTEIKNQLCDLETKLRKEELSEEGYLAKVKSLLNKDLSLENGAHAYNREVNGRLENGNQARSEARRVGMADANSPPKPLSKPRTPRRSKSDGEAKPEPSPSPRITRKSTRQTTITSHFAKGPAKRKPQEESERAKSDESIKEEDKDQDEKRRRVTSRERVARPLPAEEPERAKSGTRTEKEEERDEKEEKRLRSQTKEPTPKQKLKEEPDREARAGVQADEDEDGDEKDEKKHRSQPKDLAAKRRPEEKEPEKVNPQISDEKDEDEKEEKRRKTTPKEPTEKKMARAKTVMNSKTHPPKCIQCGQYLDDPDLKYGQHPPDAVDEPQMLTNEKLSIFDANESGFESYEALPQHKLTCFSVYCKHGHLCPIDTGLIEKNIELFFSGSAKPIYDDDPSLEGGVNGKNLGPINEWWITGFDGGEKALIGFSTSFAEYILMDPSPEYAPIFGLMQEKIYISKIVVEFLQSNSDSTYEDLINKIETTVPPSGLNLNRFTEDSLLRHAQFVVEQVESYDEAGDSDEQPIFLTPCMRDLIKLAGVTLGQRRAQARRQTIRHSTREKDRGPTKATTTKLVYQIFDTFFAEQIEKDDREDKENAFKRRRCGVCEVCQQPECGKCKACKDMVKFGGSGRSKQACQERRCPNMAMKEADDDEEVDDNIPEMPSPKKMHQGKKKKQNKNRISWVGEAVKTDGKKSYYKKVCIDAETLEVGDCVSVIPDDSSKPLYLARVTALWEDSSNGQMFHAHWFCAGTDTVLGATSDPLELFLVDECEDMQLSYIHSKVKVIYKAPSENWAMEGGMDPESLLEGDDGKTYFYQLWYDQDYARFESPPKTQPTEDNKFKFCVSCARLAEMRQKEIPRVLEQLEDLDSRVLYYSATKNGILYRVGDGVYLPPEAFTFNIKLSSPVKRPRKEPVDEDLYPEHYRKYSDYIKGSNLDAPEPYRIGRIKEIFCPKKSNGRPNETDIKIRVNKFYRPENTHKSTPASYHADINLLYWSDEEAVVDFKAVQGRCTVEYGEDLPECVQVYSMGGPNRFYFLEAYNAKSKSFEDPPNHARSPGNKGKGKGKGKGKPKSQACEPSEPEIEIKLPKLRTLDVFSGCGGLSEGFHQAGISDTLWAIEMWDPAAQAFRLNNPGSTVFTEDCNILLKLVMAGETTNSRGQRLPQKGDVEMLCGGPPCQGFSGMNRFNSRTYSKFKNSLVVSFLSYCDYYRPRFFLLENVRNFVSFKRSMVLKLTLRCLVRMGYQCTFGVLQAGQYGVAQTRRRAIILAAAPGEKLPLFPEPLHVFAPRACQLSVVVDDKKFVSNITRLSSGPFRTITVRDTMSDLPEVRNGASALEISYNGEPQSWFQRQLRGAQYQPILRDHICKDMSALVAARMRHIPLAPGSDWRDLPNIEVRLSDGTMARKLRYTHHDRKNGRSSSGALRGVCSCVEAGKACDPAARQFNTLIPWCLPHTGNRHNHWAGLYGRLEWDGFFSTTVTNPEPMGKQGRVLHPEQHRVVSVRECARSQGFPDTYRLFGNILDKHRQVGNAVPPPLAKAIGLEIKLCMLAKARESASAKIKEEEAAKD

With `Cc1cc2c(c(=O)n1Cc1cccnc1)C(c1cccs1)C(C#N)=C(N)O2` (centres undefined) as the compound, how does the AC50 [1] read?
Its AC50 is 2.08 µM (active).

Which EC50 [2] does the source give for `COc1ccc2c(-c3ccccc3)cc(SCC(=O)NC(N)=O)nc2c1` here?
Its EC50 is > 79.4 µM (not active).

What about the EC50 [3] of the same compound?
Its EC50 is > 79.4 µM (not active).

And the EC50 (Insulin-degrading enzyme [4])?
The EC50 was > 54.7 µM (inactive).

What about the IC50 (HEK293 [5]) of the same compound?
Its IC50 is 22.3 µM (inactive).

And the EC50 (Insulin-degrading enzyme [6])?
Its EC50 is > 54.7 µM (inactive).

And the EC50 [7]?
Its EC50 is > 79.4 µM (not active).

What about the EC50 (HEK293 [8]) of the same compound?
The EC50 was > 55.9 µM (inactive).

With `CC(=O)OCCn1c2nc(=O)[nH]c(=O)c-2nc2cc(C)c(C)cc21` as the compound, how does the EC50 (Insulin-degrading enzyme [4]) read?
The EC50 was > 54.7 µM (inactive).

And the EC50 [9]?
Its EC50 is 54.4 µM (inactive).

What about the AC50 (ORF 73) of the same compound?
The AC50 was 0.246 µM (active).

What about the IC50 (HEK293 [5]) of the same compound?
Its IC50 is > 89.2 µM (inactive).

What about the EC50 (Insulin-degrading enzyme [6]) of the same compound?
Its EC50 is > 54.7 µM (inactive).

And the EC50 (HEK293 [8])?
The EC50 was > 54.7 µM (inactive).

With `O=C(NC1CCCC1)c1cnn2c(C(F)(F)F)cc(-c3ccc4c(c3)OCO4)nc12` as the compound, how does the EC50 (Insulin-degrading enzyme [4]) read?
Its EC50 is > 54.7 µM (inactive).

And the IC50 (HEK293 [5])?
Its IC50 is > 89.2 µM (inactive).

And the EC50 (Insulin-degrading enzyme [6])?
Its EC50 is > 54.7 µM (inactive).

And the EC50 (HEK293 [8])?
The EC50 was > 55.9 µM (inactive).

With `COc1ccc(CNC(=O)c2ccc(=O)oc2)cc1OC` as the compound, how does the IC50 [10] read?
Its IC50 is 151 µM (inactive).

With `Cc1ccc(-c2cc(C(=O)N(C)Cc3cnn(C)c3C)c3cc(Br)ccc3n2)cc1` as the compound, how does the AC50 [11] read?
Its AC50 is 29.1 µM (active).

What about the IC50 (Interleukin-8 [12]) of the same compound?
Its IC50 is 1.11 µM (active).

And the AC50 [13]?
The AC50 was 43.1 µM (active).

And the IC50 (Interleukin-8 [14])?
Its IC50 is > 79 µM (inactive).

What about the AC50 [15] of the same compound?
The AC50 was 26.6 µM (active).

With `COc1cc2c(cc1NC(=O)c1cccnc1)CCCC2` as the compound, how does the AC50 [1] read?
The AC50 was 9.76 µM (active).

And the IC50 (Protein skinhead-1)?
The IC50 was > 100 µM (inactive).

With `C=CCc1cccc2cc(C(=O)NCc3cccnc3)c(=O)oc12` as the compound, how does the IC50 [16] read?
The IC50 was 21.2 µM (inactive).

Which IC50 [17] does the source give for `Cn1c2ccccc2c2c(=O)oc3ccccc3c21` here?
Its IC50 is > 99 µM (inactive).

Which IC50 [17] does the source give for `COc1ccccc1N1CCN(/N=C/c2ccc(Cl)c([N+](=O)[O-])c2)CC1` here?
The IC50 was > 99 µM (inactive).
